Measurements from paper PMC6264777, “New Catechol Derivatives of Safrole and Their Antiproliferative Activity towards Breast Cancer Cells” (Molecules, 2011).
Like-named read-outs stand apart in the source and are kept apart here.

What was measured:
MDA-MB-231 cells = test: Sulforhodamine B in vitro growth inhibition assay, MDA-MB-231; type: cell-based, human; settings: read-out: IC50 (μM) MDA-MB-231
Method: (§1) IC50 values of compounds 3-11, safrole, catechol 2 and the reference compound daunorubicin are summarized in Table 1 as the micromolar concentration that produces 50% cell growth inhibition after 72 hours of drug exposure.
(§2) The experimental cell cultures were obtained from American Type Culture Collection (Rockville, MD, USA). MCF-7, MDA-MB-231 cells were grown in DMEM-F12 medium containing 10% FCS, 100 U/mL penicillin, 100 µg/mL streptomycin and 1 mM glutamine. Cells are seeded into 96 well microtiter plates in 100 µL at plating density of 3 × 10^3 cells/well. After 24 h incubation at 37 °C (under a humidified 5% carbon dioxide to allow cell attachment) the cells were treated with different concentrations of drugs (safrole and derivatives) and incubated for 72 h under the same conditions. Stock solution of compounds was prepared in ethanol and the final concentration of this solvent was kept constant at 0.1%. Control cultures received 0.1% ethanol alone.
(§3) The sulforhodamine B assay according to the method of Skehan et al. was used with some modifications. Briefly, the cells were set up 3 × 10^3 cells per well of a 96-well, flat-bottomed 200 μL microplate. Cells were incubated at 37 °C in a humidified 5% CO2/95% air mixture and treated with the compounds at different concentrations for 72 hours. At the end of drug exposure, cells were fixed with 50% trichloroacetic acid at 4 °C (TCA final concentration 10%). After washing with destilled water, cells were stained with 0.1% sulforhodamine B (Sigma-Aldrich, St. Louis, MO, USA), dissolved in 1% acetic acid (50 µL/well) for 30 min, and subsequently washed with 1% acetic acid to remove unbound stain. Protein-bound stain was solubilized with 100 µL of 10 mM unbuffered Tris base. The cell density was determined using a […] plate reader (wavelength 540 nm). Values shown are the mean + SD three independent experiments in triplicate.

MCF-7 cells = test: Sulforhodamine B in vitro growth inhibition assay, MCF-7; type: cell-based, human; settings: read-out: IC50 (μM) MCF-7
Method: as §1, §2, §3

[1] = test system: dermal human fibroblast cells (DHF); test: cells; type: cell-based; settings: for IC50: read-out: IC50 DHF
various human cell types = settings: cited from earlier work
[2] = Homo sapiens, MDA-MB-231, 50% cell growth inhibition after 72 hours of drug exposure, SRB, mean ± SD, three independent experiments in triplicate
[3] = Homo sapiens, MCF7, 50% cell growth inhibition after 72 hours of drug exposure, SRB, mean ± SD, three independent experiments in triplicate
[4] = Homo sapiens, Fibroblast, 50% cell growth inhibition after 72 hours of drug exposure, SRB, non-tumoral cells
[5] = 50% cell growth inhibition after 72 hours of drug exposure, SRB, mean ± SD, three independent experiments in triplicate

Molecule: C=CCc1ccc(OC(C)=O)c(OC(C)=O)c1 [Compound 4, 4-allyl-1,2-phenylene diacetate]
- IC50 (MDA-MB-231 cells; [2]): 54.7 ± 6.6 µM
- IC50 (MCF-7 cells; [3]): > 100 µM
- IC50 [1, 4]: > 100 µM

Molecule: CC(=O)OCCCc1cc(O)c(O)cc1[N+](=O)[O-] [Compound 11, 3-(4,5-dihydroxy-2-nitrophenyl)propyl acetate]
- IC50 (MDA-MB-231 cells; [2]): 27.1 ± 4.4 µM
- IC50 (MCF-7 cells; [3]): 63.8 ± 5.5 µM
- IC50 [1, 4]: > 100 µM

Molecule: 4-allyl-1,2-phenylene diacetate [Compound 7]
- IC50 (MDA-MB-231 cells; [5]): 41.7 ± 7.4 µM
- IC50 (MCF-7 cells; [5]): > 100 µM
- IC50 ([1]; 50% cell growth inhibition after 72 hours of drug exposure, SRB, non-tumoral cells): > 100 µM

Molecule: CC(O)Cc1cc(O)c(O)cc1[N+](=O)[O-] (centres unmarked) [Compound 9, 4-(2-hydroxypropyl)-5-nitrobenzene-1,2-diol]
- IC50 (MDA-MB-231 cells; [2]): > 100 µM
- IC50 (MCF-7 cells; [3]): > 100 µM
- IC50 [1, 4]: > 100 µM

Molecule: CC(=O)OCCCc1ccc(OC(C)=O)c(OC(C)=O)c1 [Compound 6, 4-[3-(acetyloxy)propyl]-1,2-phenylene diacetate]
- IC50 (MDA-MB-231 cells; [2]): 5.9 ± 0.8 µM
- IC50 (MCF-7 cells; [3]): 97.8 ± 12.4 µM
- IC50 [1, 4]: > 100 µM

Molecule: O=[N+]([O-])c1cc(O)c(O)cc1CCCO [Compound 8, 4-(3-hydroxypropyl)-5-nitrobenzene-1,2-diol]
- IC50 (MDA-MB-231 cells; [2]): 57.3 ± 4.1 µM
- IC50 (MCF-7 cells; [3]): 78.2 ± 8.9 µM
- IC50 [1, 4]: > 100 µM

Molecule: C=CCc1cc(O)c(O)cc1[N+](=O)[O-] [Compound 2, 4-allyl-5-nitrobenzene-1,2-diol]
- IC50 (MDA-MB-231 cells; [2]): 37.5 ± 2.65 µM
- IC50 (MCF-7 cells; [3]): 55 ± 7.11 µM
- IC50 [1, 4]: > 100 µM

Molecule: C=CCc1ccc2c(c1)OCO2 [safrole, Safrole]
- IC50 (MDA-MB-231 cells; Homo sapiens, MDA-MB-231, 72 h): > 100 µM
- concentrations at which safrole becomes cytotoxic (various human cell types): 5000 to 10000 µM
- IC50 (MCF-7 cells; Homo sapiens, MCF7, 72 h): > 100 µM
- IC50 ([1]; Homo sapiens, Fibroblast, 72 h): > 100 µM

Molecule: CC(=O)OCCCc1cc(OC(C)=O)c(OC(C)=O)cc1[N+](=O)[O-] [Compound 10, 4-[3-(acetyloxy)propyl]-5-nitro-1,2-phenylene diacetate]
- IC50 (MDA-MB-231 cells; [2]): 33.8 ± 4.9 µM
- IC50 (MCF-7 cells; [3]): 51.3 ± 2.1 µM
- IC50 [1, 4]: > 100 µM

Molecule: COc1cccc2c1C(=O)c1c(O)c3c(c(O)c1C2=O)C[C@@](O)(C(C)=O)C[C@@H]3O[C@H]1C[C@H](N)[C@H](O)[C@H](C)O1 [Daunorubicin, reference compound]
- IC50 (MDA-MB-231 cells; [2]): 0.38 ± 0.06 µM
- IC50 (MCF-7 cells; [3]): 0.19 ± 0.01 µM
- IC50 [1, 4]: 14.3 ± 1.85 µM

Molecule: OCCCc1ccc(O)c(O)c1 [Compound 5, 4-(3-hydroxypropyl)benzene-1,2-diol]
- IC50 (MDA-MB-231 cells; [2]): 54.3 ± 4.1 µM
- IC50 (MCF-7 cells; [3]): > 100 µM
- IC50 [1, 4]: > 100 µM

Molecule: C=CCc1ccc(O)c(O)c1 [Compound 3, 4-allylbenzene-1,2-diol]
- IC50 (MDA-MB-231 cells; [2]): 40.2 ± 6.9 µM
- IC50 (MCF-7 cells; [3]): 98.4 ± 11.6 µM
- toxicity towards dermal human fibroblast (DHF cells) [1]: without toxicity
- IC50 [1, 4]: > 100 µM
